Each structure is given as a SMILES string.

This assay has as its target T1, Thyroid hormone receptor alpha (Homo sapiens, UniProt P10827).
T1 sequence (P10827 whole entry): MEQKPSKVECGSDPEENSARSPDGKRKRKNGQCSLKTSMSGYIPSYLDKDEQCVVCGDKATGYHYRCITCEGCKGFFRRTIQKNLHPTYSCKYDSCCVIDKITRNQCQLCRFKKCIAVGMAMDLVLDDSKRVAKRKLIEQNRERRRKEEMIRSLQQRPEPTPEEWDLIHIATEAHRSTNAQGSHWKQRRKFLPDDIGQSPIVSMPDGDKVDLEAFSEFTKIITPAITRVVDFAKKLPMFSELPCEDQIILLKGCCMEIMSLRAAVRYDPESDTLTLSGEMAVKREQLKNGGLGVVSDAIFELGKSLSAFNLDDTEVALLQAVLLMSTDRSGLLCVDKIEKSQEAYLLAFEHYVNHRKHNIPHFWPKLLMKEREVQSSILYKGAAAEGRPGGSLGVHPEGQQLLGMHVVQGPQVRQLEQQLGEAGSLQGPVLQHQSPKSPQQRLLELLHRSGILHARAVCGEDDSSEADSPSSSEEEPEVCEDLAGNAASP
As to the kind of experiment: TRalpha-Binding Assay and Thyroid Response Element (TRAFalpha1) Reporter Assay. The note with it: pH 7; 4 °C. From the text: EC50 is the concentration of compound required to reach or inhibit (agonist or antagonist) 50% of T3-induced TRalpha-activation in CHOK1 cells stably transfected with hTRalpha using alkaline phosphatase reporter assay.

As for `O=C(O)CCc1cc(Br)c(OCc2cccc(Br)c2)c(Br)c1` [3-{3,5-dibromo-4-[(3-bromophenyl)methoxy]phenyl}propanoic acid], the half-maximal effective concentration (EC50) is 0.38 µM.

By EC50 is commonly meant the concentration giving half of the maximal effect. Low readings indicate a more potent agent, high ones a less potent agent.

The values are drawn from BindingDB's records for doi:10.1016/j.bmcl.2007.01.009 (Karo Bio, 2007).
